Molecular target: T1, HCV NS5B RdRp genotype 1b (Hepatitis C virus genotype 1b, UniProt Q9WMX2)
T1 construct: The protein was expressed with an 18 amino acid C-terminal truncation to enhance the solubility; made in house; host or cells: E. coli BL21 (DE3), pET21a
Assay: Modified HCV NS5B RdRp enzyme assay (with preincubation)
Assay type: biochemical
Conditions: modified method (with preincubation)
Procedure: HCVNS5B RdRp cloning, expression, and purification. The cDNA encoding the NS5B protein of HCV, genotype 1b, was cloned into the pET21a expression vector. The protein was expressed with an 18 amino acid C-terminal truncation to enhance the solubility. The E. coli competent cell line BL21 (DE3) was used for expression of the protein. Cultures were grown at 37° C. for ˜4 hours until the cultures reached an optical density of 2.0 at 600 nm. The cultures were cooled to 20° C. and induced with 1 mM IPTG. Fresh ampicillin was added to a final concentration of 50 μg/ml and the cells were grown overnight at 20° C.
Cell pellets (3 L) were lysed for purification to yield 15-24 mgs of purified NS5B. The lysis buffer consisted of 20 mM Tris-HCl, pH 7.4, 500 mM NaCl, 0.5% triton X-100, 1 mM DTT, 1 mM EDTA, 20% glycerol, 0.5 mg/ml lysozyme, 10 mM MgCl2, 15 ug/ml deoxyribonuclease I, and Complete TM protease inhibitor tablets (Roche). After addition of the lysis buffer, frozen cell pellets were resuspended using a tissue homogenizer. To reduce the viscosity of the sample, aliquots of the lysate were sonicated on ice using a microtip attached to a Branson sonicator. The sonicated lysate was centrifuged at 100,000×g for 1 hr at 4° C. and filtered through a 0.2 μm filter unit (Corning).
The protein was purified using three sequential chromatography steps: Heparin sepharose CL-6B, polyU sepharose 4B, and Hitrap SP sepharose (Pharmacia). The chromatography buffers were identical to the lysis buffer but contained no lysozyme, deoxyribonuclease I, MgCl2 or protease inhibitor and the NaCl concentration of the buffer was adjusted according to the requirements for charging the protein onto the column. Each column was eluted with a NaCl gradient which varied in length from 5-50 column volumes depending on the column type. After the final chromatography step, the resulting purity of the enzyme is >90% based on SDS-PAGE analysis. The enzyme was aliquoted and stored at −80° C.
Standard HCV NS5B RdRp enzyme assay. HCV RdRp genotype Ib assays were run in a final volume of 60 μl in 96 well plates (Costar 3912). The assay buffer is composed of 20 mM Hepes, pH 7.5, 2.5 mM KCl, 2.5 mM MgCl2, 1 mM DTT, 1.6 U RNAse inhibitor (Promega N2515), 0.1 mg/ml BSA (Promega R3961), and 2% glycerol. All compounds were serially diluted (3-fold) in DMSO and diluted further in water such that the final concentration of DMSO in the assay was 2%. HCV RdRp genotype 1b enzyme was used at a final concentration of 28 nM. A polyA template was used at 6 nM, and a biotinylated oligo-dT12 primer was used at 180 nM final concentration. Template was obtained commercially (Amersham 27-4110). Biotinylated primer was prepared by Sigma Genosys. ^3H-UTP was used at 0.6 μCi (0.29 μM total UTP). Reactions were initiated by the addition of enzyme, incubated at 30° C. for 60 min, and stopped by adding 25 μl of 50 mM EDTA containing SPA beads (4 μg/μl, Amersham RPNQ 0007). Plates were read on a Packard Top Count NXT after >1 hr incubation at room temperature.
Modified HCV NS5B RdRp enzyme assay. A modified enzyme assay was performed essentially as described for the standard enzyme assay except for the following: The biotinylated oligo dT12 primer was precaptured on streptavidin-coated SPA beads by mixing primer and beads in assay buffer and incubating at room temperature for one hour. Unbound primer was removed after centrifugation. The primer-bound beads were resuspended in 20 mM Hepes buffer, pH 7.5 and used in the assay at final concentrations of 20 nM primer and 0.67 μg/μl beads. Order of addition in the assay: enzyme (14 nM) was added to diluted compound followed by the addition of a mixture of template (0.2 nM), ^3H-UTP (0.6 μCi, 0.29 μM), and primer-bound beads, to initiate the reaction; concentrations given are final. Reactions were allowed to proceed for 4 hours at 30° C.
The IC50 values for compounds were determined using seven different [I]. […]

T1 sequence (Q9WMX2 2420-2992): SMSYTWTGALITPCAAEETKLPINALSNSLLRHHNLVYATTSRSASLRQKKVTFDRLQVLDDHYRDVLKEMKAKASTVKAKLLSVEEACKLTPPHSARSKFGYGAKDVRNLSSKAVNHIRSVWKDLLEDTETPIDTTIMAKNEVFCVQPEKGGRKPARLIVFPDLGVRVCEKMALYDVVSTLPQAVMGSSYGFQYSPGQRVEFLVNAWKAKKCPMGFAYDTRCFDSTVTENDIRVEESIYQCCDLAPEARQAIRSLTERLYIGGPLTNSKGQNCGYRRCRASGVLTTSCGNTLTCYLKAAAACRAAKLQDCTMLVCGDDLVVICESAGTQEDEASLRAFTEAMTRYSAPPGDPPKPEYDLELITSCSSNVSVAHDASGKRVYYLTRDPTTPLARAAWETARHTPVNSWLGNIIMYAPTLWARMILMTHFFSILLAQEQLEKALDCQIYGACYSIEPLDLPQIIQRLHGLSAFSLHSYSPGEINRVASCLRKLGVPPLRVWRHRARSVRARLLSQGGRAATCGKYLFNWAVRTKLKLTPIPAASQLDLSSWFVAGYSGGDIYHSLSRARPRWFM

| SMILES | IC50 [nM] |
| --- | --- |
| COc1ccc2c(c1)CC(C(=O)N1CCOCC1)Cn1c-2c(C2CCCCC2)c2ccc(C(=O)O)cc21 (stereo not shown) | 20 to 1000 |
| C[C@@H]1CN(C(=O)C2=Cc3ccccc3-c3c(C4CCCCC4)c4ccc(C(=O)O)cc4n3C2)C[C@H](C)O1 | 20 to 1000 |
| O=C(NS(=O)(=O)C1CC1)c1ccc2c(C3CCCCC3)c3n(c2c1)CC(C(=O)N1CCOCC1)Cc1ccccc1-3 (stereo not shown) [drawing 289] | 20 to 1000 |
| CS(=O)(=O)NC(=O)c1ccc2c(C3CCCCC3)c3n(c2c1)CC(C(=O)N1CCOCC1)Cc1ccccc1-3 (stereo not shown) [drawing 348] | 20 to 1000 |
| CS(=O)(=O)NC(=O)c1ccc2c(C3CCCCC3)c3n(c2c1)CC(C(=O)N1CCOCC1)Cc1ccccc1-3 (stereo not shown) [drawing 349] | 20 to 1000 |
| COC(=O)c1ccc2c(C3CCCCC3)c3n(c2c1)CC(C(=O)OCc1ccccc1)=Cc1ccccc1-3 [drawing 322] | > 1000 |
| O=C(NS(=O)(=O)C1CC1)c1ccc2c(C3CCCCC3)c3n(c2c1)CC(C(=O)N1CCOCC1)Cc1ccccc1-3 (stereo not shown) [drawing 288] | 20 to 1000 |
| COC(=O)c1ccc2c(C3CCCCC3)c3n(c2c1)CC(C(=O)N1CCOCC1)=Cc1ccc(Cl)cc1-3 | > 1000 |

Same assay, conditions: preincubation protocol

| SMILES | IC50 [nM] |
| --- | --- |
| COC(=O)c1ccc2c(C3CCCCC3)c3n(c2c1)CC(C(=O)NCC=O)=Cc1cc(OC)ccc1-3 | 10 to 1000 |
| COC(=O)c1ccc2c(C3CCCCC3)c3n(c2c1)CC(C(=O)N1CCOCC1)=Cc1occc1-3 | > 4000 |
| COC(=O)c1ccc2c(C3CCCCC3)c3n(c2c1)C(O)c1cc(N(C)C)ccc1-3 (stereo not shown) | > 4000 |
| COC(=O)C1=Cc2occc2-c2c(C3CCCCC3)c3ccc(C(=O)OC)cc3n2C1 | > 12500 |
| COC(=O)C1=Cc2cc(N(C)C)ccc2-c2c(C3CCCCC3)c3ccc(C(=O)OC)cc3n2C1 | > 12500 |
| COC(=O)c1ccc2c(C3CCCCC3)c3n(c2c1)CC(C(=O)N1C[C@@H](C)O[C@@H](C)C1)=Cc1occc1-3 | > 4000 |
| COC(=O)c1ccc2c(C3CCCCC3)c3n(c2c1)CC(C(=O)O)=Cc1occc1-3 | 1000 to 10000 |

Tested on: HCV replicon
Assay: HCV replicon FRET assay
Assay type: cell-based
Conditions: Hepatitis C virus; FRET assay; read-out: EC50
Procedure: The IC50 values for compounds were determined using seven different [I]. IC50 values were calculated from the inhibition using the formula y=A+((B−A)/(1+((C/x)^D))). FRET Assay Preparation. To perform the HCV FRET screening assay, 96-well cell culture plates were used. The FRET peptide (Anaspec, Inc.) (Taliani et al., Anal. Biochem. 240:60-67 (1996), hereby incorporated by reference in its entirety) contains a fluorescence donor, EDANS, near one end of the peptide and an acceptor, DABCYL, near the other end. The fluorescence of the peptide is quenched by […] resonance energy transfer (RET) between the donor and the acceptor, but as the NS3 protease cleaves the peptide the products are released from RET quenching and the fluorescence of the donor becomes apparent. The assay reagent was made as follows: 5× cell Luciferase cell culture lysis reagent from Promega (#E153A) diluted to 1× with dH2O, NaCl added to 150 mM final, the FRET peptide diluted to 20 uM final from a 2 mM stock.
To prepare plates, HCV replicon cells, with or without a Renilla luciferase reporter gene, were trypsinized and placed into each well of a 96-well plate with titrated test compounds added in columns 3 through 12; columns 1 and 2 contained a control compound (HCV protease inhibitor), and the bottom row contained cells without compound. The plates were then placed in a CO2 incubator at 37 degrees C.
Assays. Subsequent to addition of the test compounds described above (FRET Assay Preparation), at various times the plate was removed and Alamar blue solution (Trek Diagnostics, #00-100) was added per well as a measure of cellular toxicity. After reading in a Cytoflour 4000 instrument (PE Biosystems), plates were rinsed with PBS and then used for FRET assay by the addition of 30 ul of the FRET peptide assay reagent described above (FRET Assay Preparation) per well. The plate was then placed into the Cytoflour 4000 instrument which had been set to 340 excite/490 emission, automatic mode for 20 cycles and the plate read in a kinetic mode. Typically, the signal to noise using an endpoint analysis after the reads was at least three-fold. Alternatively, after Alamar blue reading, plates were rinsed with PBS, 50 ul of DMEM (high glucose) without phenol red was added and plates were then used for luciferase assay using the Promega Dual-Glo Luciferase Assay System.
Compound analysis was determined by quantification of the relative HCV replicon inhibition and the relative cytotoxicity values. To calculate cytoxicity values, the average Alamar Blue fluorescence signals from the control wells were set as 100% non-toxic. The individual signals in each of the compound test wells were then divided by the average control signal and multiplied by 100% to determine […]. To calculate the HCV replicon inhibition values, an average background value was obtained from the two wells containing the highest amount of HCV protease inhibitor at the end of the assay period. These numbers were similar to those obtained from naïve Huh-7 cells.
The background numbers were then subtracted from the average signal obtained from the control wells and this number was used as 100% activity. The individual signals in each of the compound test wells were then divided by the averaged control values after background subtraction and multiplied by 100% to determine percent activity. EC50 values for a protease inhibitor titration were calculated as the concentration which caused a 50% reduction in FRET or luciferase activity. The two numbers generated for the compound plate, percent cytoxicity and percent activity were used to determine compounds of interest for further analysis.

| SMILES | EC50 [nM] |
| --- | --- |
| COc1ccc2c(c1)CC(C(=O)N1CCOCC1)Cn1c-2c(C2CCCCC2)c2ccc(C(=O)O)cc21 (stereo not shown) | 10 to 1000 |
| C[C@@H]1CN(C(=O)C2=Cc3ccccc3-c3c(C4CCCCC4)c4ccc(C(=O)O)cc4n3C2)C[C@H](C)O1 | 10 to 1000 |
| CCOC(=O)/C=C/c1ccc(NC(=O)C2(NC(=O)c3ccc4c(C5CCCCC5)c5n(c4c3)CCNc3ccccc3-5)CCCC2)cc1 | 10 to 1000 |
| CN1C(=O)Cn2c(c(C3CCCCC3)c3ccc(C(=O)NS(=O)(=O)N(C)C)cc32)-c2ccccc21 | 10 to 1000 |
| CC(C)(C)OC(=O)N1CCCCn2c(c(C3CCCCC3)c3ccc(C(=O)NC4(C(=O)Nc5ccc(/C=C/C(=O)O)cc5)CCCC4)cc32)-c2ccccc21 | 1000 to 10000 |
| O=C(O)/C=C/c1ccc(NC(=O)C2(NC(=O)c3ccc4c(C5CCCCC5)c5n(c4c3)CCCc3nc[nH]c3-5)CCCC2)cc1 | 1000 to 10000 |
| O=C(O)c1ccc(-c2cnc(NC(=O)C3(NC(=O)c4ccc5c(C6CCCCC6)c6n(c5c4)CC=Cc4ccccc4-6)CCCC3)s2)cc1 | 10 to 1000 |
| COC(=O)/C=C/c1ccc(NC(=O)C2(NC(=O)c3ccc4c(C5CCCCC5)c5n(c4c3)CC(=O)N(C)c3ccccc3-5)CCCC2)cc1 | 10 to 1000 |
| O=C(NC1(C(=O)O)CCNCC1)c1ccc2c(C3CCCCC3)c3n(c2c1)CC=Cc1ccccc1-3 | 1000 to 10000 |
| O=C(NC1(C(=O)Nc2nccs2)CCCC1)c1ccc2c(C3CCCCC3)c3n(c2c1)CC=Cc1ccccc1-3 | 10 to 1000 |
| CC1=C(C(=O)N2CCOCC2)Cn2c(c(C3CCCCC3)c3ccc(C(=O)NS(=O)(=O)N(C)C)cc32)-c2ccccc21 | 10 to 1000 |
| COC(=O)/C=C/c1ccc(NC(=O)C2(NC(=O)c3ccc4c(C5CCCCC5)c5n(c4c3)CCCc3nc[nH]c3-5)CCCC2)cc1 | 1000 to 10000 |
| CCOC(=O)/C=C/c1ccc(NC(=O)C2(NC(=O)c3ccc4c(C5CCCCC5)c5n(c4c3)CCN(C(=O)OC(C)(C)C)c3ccccc3-5)CCCC2)cc1 | 10 to 1000 |
| O=C(O)c1ccc2c(C3CCCCC3)c3n(c2c1)CCCc1nc[nH]c1-3 | > 10000 |
| O=C(O)c1ccc2c(C3CCCCC3)c3n(c2c1)CCCc1nccnc1-3 | 1000 to 10000 |
| O=C(O)c1ccc2c(C3CCCCC3)c3n(c2c1)C/C=C\COc1ccccc1-3 | 1000 to 10000 |
| O=C(NC1(C(=O)O)CCCC1)c1ccc2c(C3CCCCC3)c3n(c2c1)CCCCNc1ccccc1-3 | 1000 to 10000 |
| O=C(O)c1ccc2c(C3CCCCC3)c3n(c2c1)C(=O)NCc1ccccc1-3 | > 10000 |
| COC(=O)c1ccc2c(C3CCCCC3)c3n(c2c1)CC(C(=O)N1C[C@@H](C)O[C@@H](C)C1)=Cc1c(OC)cccc1-3 | > 3300 |
| O=C(O)c1ccc2c(C3CCCCC3)c3n(c2c1)CCNc1ccccc1-3 | 1000 to 10000 |
| COc1cc2c(cn1)-c1c(C3CCCCC3)c3ccc(C(=O)O)cc3n1CC(C(=O)N1C[C@@H](C)O[C@@H](C)C1)=C2 | 1000 to 10000 |
| COC(=O)/C=C/c1ccc(NC(=O)C2(NC(=O)c3ccc4c(C5CCCCC5)c5n(c4c3)CCCn3ccnc3-5)CCCC2)cc1 | 1000 to 10000 |
| COC(=O)/C=C/c1ccc(NC(=O)C2(NC(=O)c3ccc4c(C5CCCCC5)c5n(c4c3)CC(C(=O)NCCN(C)C)=Cc3ccccc3-5)CCCC2)cc1 | 10 to 1000 |
| CN1Cc2ccccc2-c2c(C3CCCCC3)c3ccc(C(=O)O)cc3n2C1=O | > 10000 |
| COC(=O)/C=C/c1ccc(NC(=O)C2(NC(=O)c3ccc4c(C5CCCCC5)c5n(c4c3)CCCc3nccnc3-5)CCCC2)cc1 | 1000 to 10000 |
